Test results from patent US12370200B2, “Pharmaceutical composition containing brexanolone, ganaxolone, or zuranolone, and use thereof” (Brii Biosciences, Inc., priority 2019, dated 2025).
Converted amounts (≈) assume the structure as drawn. Where two headings read alike, the source gives them in different places.

Columns and labels:
[1] = human plasma, after oral administration; cited from earlier work
[2] = Solubility of brexanolone by visual assessment of dissolution in various solvents; type: physicochemical; conditions: for solubility / solubility at 1 h: thermodynamic from solid; for solubility at 1 h: 40° C. for 1 h
Procedure: Solubility of the supplied brexanolone was determined by visual assessment of dissolution in various solvents at RT (˜22° C.) and 40° C. Aliquots of solvent were added to a fixed amount of brexanolone (˜10 mg) at room temperature until the dissolution point or a maximum volume of 1.8 mL was reached. All samples were then heated to 40° C. for 1 h and dissolution was observed. As shown in Error!

Structure (SMILES): CC(=O)[C@H]1CC[C@H]2[C@@H]3CC[C@H]4C[C@](C)(O)CC[C@]4(C)[C@H]3CC[C@]12C [Ganaxolone, ganaxolone]
- half-life [1]: approximately 20 hours

Structure (SMILES): CC(=O)[C@H]1CC[C@H]2[C@@H]3CC[C@H]4C[C@H](O)CC[C@]4(C)[C@H]3CC[C@]12C [brexanolone]
- solubility ([2]; 22 °C, organic solvent or mixture, RT, in MeCN, IPE, MTBE, IPA, MeOH, IPA:water (9:1, v:v), toluene, DMSO, EtOAc (span over these solvents), read-out: moderate solubility at RT): 6 to 52 mg/mL (≈ 18.8 to 163 mM)
- solubility ([2]; 22 °C, organic solvent or mixture, RT, in THF and DCM, read-out: high solubility at RT): > 96 mg/mL
- solubility at 1 h ([2]; organic solvent or mixture, solvent 2-Propanol (IPA)): > 19 mg/mL
- solubility ([2]; organic solvent or mixture, solvent 2-Propanol (IPA), RT (~22° C.), read-out: Solubility at RT): 19 to 49 mg/mL (≈ 59.7 to 154 mM)
- solubility at 1 h ([2]; organic solvent or mixture, solvent 2-Propanol:water (9:1, v:v)): > 20 mg/mL
- solubility ([2]; organic solvent or mixture, solvent 2-Propanol:water (9:1, v:v), RT (~22° C.), read-out: Solubility at RT): 20 to 51 mg/mL (≈ 62.8 to 160 mM)
- solubility at 1 h ([2]; organic solvent or mixture, solvent Acetonitrile (MeCN)): > 6 mg/mL
- solubility ([2]; organic solvent or mixture, solvent Acetonitrile (MeCN), RT (~22° C.), read-out: Solubility at RT): 6 to 10 mg/mL (≈ 18.8 to 31.4 mM)
- solubility at 1 h ([2]; organic solvent or mixture, solvent Dichloromethane (DCM)): > 108 mg/mL
- solubility ([2]; organic solvent or mixture, solvent Dichloromethane (DCM), RT (~22° C.), read-out: Solubility at RT): 108 to 432 mg/mL (≈ 339 to 1360 mM)
- solubility at 1 h ([2]; organic solvent or mixture, solvent Dimethyl sulfoxide (DMSO)): > 20 mg/mL
- solubility ([2]; organic solvent or mixture, solvent Dimethyl sulfoxide (DMSO), RT (~22° C.), read-out: Solubility at RT): 20 to 49 mg/mL (≈ 62.8 to 154 mM)
- solubility at 1 h ([2]; organic solvent or mixture, solvent Ethyl Acetate (EtOAc)): > 21 mg/mL
- solubility ([2]; organic solvent or mixture, solvent Ethyl Acetate (EtOAc), RT (~22° C.), read-out: Solubility at RT): 21 to 52 mg/mL (≈ 65.9 to 163 mM)
- solubility at 1 h ([2]; organic solvent or mixture, solvent Isopropyl ether (IPE)): > 6 mg/mL
- solubility ([2]; organic solvent or mixture, solvent Isopropyl ether (IPE), RT (~22° C.), read-out: Solubility at RT): 6 to 11 mg/mL (≈ 18.8 to 34.5 mM)
- solubility at 1 h ([2]; organic solvent or mixture, solvent Methanol (MeOH)): > 19 mg/mL
- solubility ([2]; organic solvent or mixture, solvent Methanol (MeOH), RT (~22° C.), read-out: Solubility at RT): 19 to 49 mg/mL (≈ 59.7 to 154 mM)
- solubility at 1 h ([2]; organic solvent or mixture, solvent Methyl t-butyl ether (MTBE)): > 10 mg/mL
- solubility ([2]; organic solvent or mixture, solvent Methyl t-butyl ether (MTBE), RT (~22° C.), read-out: Solubility at RT): 10 to 20 mg/mL (≈ 31.4 to 62.8 mM)
- solubility at 1 h ([2]; organic solvent or mixture, solvent Tetrahydrofuran (THF)): > 96 mg/mL
- solubility ([2]; organic solvent or mixture, solvent Tetrahydrofuran (THF), RT (~22° C.), read-out: Solubility at RT): 96 to 384 mg/mL (≈ 301 to 1210 mM)
- solubility at 1 h ([2]; organic solvent or mixture, solvent Toluene): > 20 mg/mL
- solubility ([2]; organic solvent or mixture, solvent Toluene, RT (~22° C.), read-out: Solubility at RT): 20 to 50 mg/mL (≈ 62.8 to 157 mM)
- Solubility at RT ([2]; solvent Water, RT (~22° C.)): <6 mg/mL
- solubility at 1 h ([2]; solvent Water): < 6 mg/mL
- solubility ([2]; solvent Water, RT (~22° C.), read-out: Solubility at RT): < 6 mg/mL
